For data set [1], the system named is neonatal foreskin fibroblasts. In words: Hydrogen peroxide oxidative challenge, cell yields.
Experimental: Early passage neonatal foreskin fibroblasts were passed to 100 mm dishes and pretreated 24 hours after passage with 100 μM pTT or diluent control. […] For each experiment fresh H2O2 solutions were made in DMEM. The H2O2 and control DMEM solutions were made and sterilized through 0.45 μm syringe filters immediately before treatment. After the one-hour treatment with H2O2 or diluent control, fresh medium was provided. Cells were harvested at later timepoints by a brief washing in 1× EDTA, followed by trypsinization at 37° C. Cell yields were determined using the Coulter Z cell counter.
The hydrogen peroxide oxidative challenge assay data were generated with the combined results of four separate experiments. The averages for each treatment condition and timepoint studied (8, 24, 48, and 72 hours) were used to calculate the percent of adherent H2O2 treated cells relative to diluent-treated cells. Changes in cell yield were determined as a function of time using General Linear Model with repeated measure analysis (SPSS Version 10).
After 72 hours of pretreatment with either 100 μM pTT or diluent control, the same number of cells were replated with fresh 10% CS DMEM lacking pTT. The following day they were exposed to a dose of 25 μM H2O2 or DMEM control for 1 hour, and cell yields were determined at 8, 24, 48 and 72 hours following the H2O2 treatment.
Newborn fibroblasts cells were plated in DMEM supplemented with 10% CS. Forty-eight hours after plating, cells were provided fresh medium. Twenty-four hours later, cells were provided fresh medium containing 40 μM of p[sequence] (abbreviated as TO, SEQ ID NO: 1) or diluent as a control. Seventy-two hours later, cells were harvested and replated in fresh medium lacking oligonucleotides. Twenty-four hours later, cells were provided fresh H2O2 (25 μM) or diluent for 1 hour and then provided fresh DMEM with 10% CS. Cell yield was then measured in TO-pre-treated cultures as well as control cultures.
A further data set relates to GPX protein. Nature of the data set: Western blot analysis of antioxidant enzymes: GPX protein. The settings on record: 40 μM, within several hours, up to 168 hours. In kind it is cell-based, human. The protocol:
(§1) Cell lysates were harvested at various intervals after T-oligo treatment in harvest buffer containing 0.25 M Tris HCl (pH 7.5), 0.375 M NaCl, 2.5% sodium deoxycholate, 1% Triton X-100, 25 mM MgCl2, 0.1 mg/ml aprotinin (Sigma, St. Louis, Mo.) and 1 mM phenylmethyl sulfonyl flouride (PMSF) (Sigma). Samples were sheared through a fine needle syringe, sonicated, centrifuged and the supernatant was isolated. Total cellular protein concentrations were determined spectrophotometrically with the Bio-Rad protein assay (Bio-Rad Laboratories, Inc, Hercules, Calif.). Equal amounts of total protein from each sample (35-65 μg) were separated by 10-15% polyacrylamide gel electrophoresis, and transferred to nitrocellulose membranes. […]
(§2) Membranes were reacted with antibodies diluted in Tris-based buffer with nonfat milk powder as a blocking agent. […] Antibody binding was detected with electrochemical luminescence (ECL kit, NEN Life Science Products, Inc.) and exposure to XAR film (Eastman Kodak Co.).
(§3) The levels of superoxide dismutase 1 (SOD1), superoxide dismutase 2 (SOD2), catalase (Cat) and glutathione peroxidase (GPX) were determined in newborn fibroblasts at different time points after treatment with 40 μM of T-oligo in comparison with cells treated either with 40 μM of control complementary oligo pCTAACCCTAAC (SEQ ID NO: 22) or diluent. […]
In general terms: Immunoblotting shows a protein as a band on a membrane.

In another data set the test system is total p53 protein. The conditions noted are these: 40 μM, published reports; cited from earlier work.
A further data set relates to SOD1 protein. In words: Western blot analysis of antioxidant enzymes: SOD1 protein. Type of data set: cell-based, human. The conditions noted are these: 40 μM, within several hours, up to 168 hours. The protocol: as §1, §2, §3
Data set [2] concerns extracellular H2O2 from newborn fibroblasts. Nature of the data set: Extracellular hydrogen peroxide generation assay (horseradish peroxidase). Type of data set: cell-based, human. The settings on record: 100 μM, two days treatment. The protocol:
This assay was described by Ruch et al. for measurement of H2O2 production by macrophages and neutrophils^93 and modified for cultured cytokine-stimulated human lung fibroblasts by Thannickal et al.^94 Briefly, it utilizes horseradish peroxidase (HRP) to catalyze H2O2-dependent dimerization of tyrosine in homovanillic acid (HVA), where the H2O2 is the extracellular fraction of H2O2 produced by stimulated cells. Fibroblasts were seeded at 0.5×10^4 cells/cm^2 and treated the following day with diluent, 100 μM pTT, 100 μM pAA, 40 μM TO or 40 μM TOC1 for two days. These doses were determined in previous studies to be the optimal effective doses to achieve p53 induction and cell cycle arrest in fibroblasts within the parameters used in these investigations (cell seeding density and time of treatment).^13,142 An assay medium consisting of sterile Hanks' Balanced Salt Solution (HBSS), HRP (5 U/ml) and HVA ([…]) was added to cells after removal of the T-oligo-supplemented medium. […] Each sample was fluorometrically analyzed by excitation of the dimerized tyrosine product at 323 nm with emission measured at 423 nm (Perkin-Elmer LS-5B Luminescence Spectrometer). The same cells were then harvested and counted by Coulter Counter. […] Using the cell count results, H2O2 production was expressed as a function of time and cell number (pmol/min/million cells). […]

{P} = phosphate

As to “pGTTAGGGTTAG (5' {P}, sugars by position and backbone not given here) [TO]”, in data set [1] (40 μM TO 72 hours pretreatment, 25 μM H2O2 1 hour, up to 48 hours), the “resistance to H2O2 measured by total cell yield” value is given as “increased resistance to H2O2”. In data set [1] (40 μM TO pretreatment, 25 μM H2O2, non-treated control 52%), the “cells surviving oxidative challenge by H2O2 (cell yield as percent of own diluent control)” value amounted to 75%. For the same substance, the GPX protein level entry in the data set on GPX protein is listed as “induced”. Also, the “time to p53 induction” value with total p53 protein was not above 8 h. Besides, the SOD1 protein level entry in the data set on SOD1 protein was “induced”.
For the substance “5′-phosphorylated thymidine dinucleotides [pTT]”, the “cell yields over time following exposure to H2O2 vs diluent pretreated” value in data set [1] (100 μM pTT 72 hours pretreatment, 25 μM H2O2 1 hour, p=0.0008) was “higher cell yields”. Moreover, the “cell yields at 8 hours after H2O2 treatment vs diluent-pretreated” value in data set [1] (100 μM pTT pretreatment, 25 μM H2O2) was “lower cell yields than in the diluent-pretreated group”. Also, in data set [1] (100 μM pTT pretreatment, 24 and 48 hours after 25 μM H2O2), the “higher relative cell yields (percentage of respective H2O2 controls) vs diluent-pretreated” value stood at 10%. The “extracellular H2O2 production” value in data set [2] is on record as “does not yield extracellular H2O2”.

The values are drawn from patent publication US20100286247A1, “Methods of Protection from Oxidative Stress” (Trustees of Boston University, priority 2005, published 2010).
